The values that follow come from patent US20080119408A1, “PTH FORMULATIONS FOR INTRANASAL DELIVERY” (NASTECH PHARMACEUTICAL COMPANY INC., priority 2006, published 2008).

Where two headings read alike, the source gives them in different places. Ends that are not written are not given here.

The term Cmax denotes the peak of the concentration-time curve. Usually Tmax stands for the time at which the peak concentration occurs.

For data set [1] the following is noted: anesthetized rats, cited from earlier work.
The next data set relates to MatTek in vitro system. Put plainly: Chlorobutanol permeation study of API formulations (PTH, Calcitonin), MatTek in vitro system, ELISA. In kind it is cell-based. The note with it: CB 0-5 mg/mL. As to the method:
Chlorobutanol (CB) was added to API formulations (PTH and Calcitonin) to test permeation in the MatTek in vitro system. CB was tested at varying concentrations (0, 1.25, 2.5, 3.75 and 5 mg/mL) in 10 mM citrate buffer, pH 4.0 and adjusted for a final target osmolality of 220 mOsm with sorbitol. Calcitonin and PTH were added at 2 mg/mL in each of the respective control or test formulations (n=6 insert per formulation). 1 mL of each formulation was placed into silanized 3 cc vials. A 0.1 mL volume of a 20× stock of one of the API compounds was added to 0.9 mL of 1.1× concentrated diluent form of each of the CB formulations to make the unique formulations.
For orientation: ELISA stands for enzyme-linked immunosorbent assay.

The subject of a further data set is Crl:CD(SD) rats. Briefly: 13-week intranasal toxicity and toxicokinetics in rats. It counts as in vivo, rat. As to the method:
(§1) Toxicity and toxicokinetics of PTH1-34 formulations were evaluated in male and female Crl:CD(SD) rats. PTH1-34 (synthetic form) was administered once daily via intranasal instillation to rats for at least 13 weeks. For comparison, one group received commercially available recombinant PTH1-34 via subcutaneous injection. Assessment of toxicity was based on mortality, clinical observations, ophthalmic examinations, body weights, food consumption, clinical and anatomic pathology, and toxicokinetic evaluations. Two synthetic PTH1-34 formulations were used in the study, PTH-072-1 and PTH-074 at low and high doses (formulations are shown in Table 22).
(§2) Doses in rats were determined for body weight, body surface area, and nasal surface area. Representative concentrations of PTH1-34 for clinical studies were considered to be 1.5 mg/mL and 3.0 mg/mL (and a dose volume of 100 μL). For the lower concentration, a 70 kg human would receive a dose of 2.1 μg/kg based on body weight. At the higher dose a human would receive a dose of 4.3 μg/kg based on body weight.

Test in data set [2]: as above
In kind it is in vivo, rat. The conditions noted are these: Crl:CD(SD), rat, in vivo, sc, 25 μg/kg/day, female rats, administered by injection (subcutaneous). As to the method:
as §1, §2

Data set [3] is described as follows: 13-week intranasal toxicity and toxicokinetics in dogs. The note with it: both sexes, beagle, dog, in vivo, sc, 6 μg/kg/day; dogs, subcutaneous injection; read-out: Tmax for PTH1-34. In kind it is in vivo. As to the method:
(§3) Toxicity and toxiokinetics of PTH1-34 was studied after administration of PTH1-34 once daily by intranasal instillation to dogs for at least 13 weeks. One additional group received recombinant PTH1-34 by subcutaneous injection for comparison.
(§4) Male and female beagles were assigned among six study groups. Animals assigned to groups 1 through 5 received an intranasal installation of a negative control (0.9% Sodium Chloride for Injection, USP), 40 or 80 μg/kg of body weight/day (μg/kg/day) PTH1-34 (synthetic form) in the PTH-072 formulation (Example 10, Table 22), or 80 or 200 μg/kg/day PTH1-34 (synthetic form) in the PTH-074-1 formulation (Example 10, Table 22).
(§5) Results were collected for mortality, clinical signs, gross nasal passage observations, ophthalmic findings, electrocardiogram measurements, blood pressure and heart rate differences, body weights, food consumption, clinical and anatomic pathology, and toxicokinetic evaluations. All animals in the study survived to scheduled necropsy. […] The nasal cavity was sectioned such that meaningful regions of the cavity were represented, and the soft (e.g., epithelial lining) or hard tissues (e.g., bone and cartilage based structures) of the nasal cavity were examined.

In a further data set the test system is beagles. The description is as above. It counts as in vivo. As to the method: as §3, §4, §5
The subject of data set [4] is EpiAirway Tissue Model (normal, human-derived tracheal/bronchial epithelial cells). Briefly: Cell viability, MTT assay (Example 3). It counts as cell-based. The note with it: after 1-h incubation. As to the method:
(§6) Each tissue insert was placed in an individual well containing 1 ml media. On the apical surface of the inserts, 100 μl of test formulation was applied, and the samples were shaken for 1 h at 37° C. The underlying culture media samples were taken at 20, 40, and 60 minutes and stored at 4° C. for up to 48 hours for lactate dehydrogenase (LDH, cytotoxicity) and sample penetration (PTH HPLC evaluations). The 60-min samples were used for the lactate dehydrogenase (LDH, cytotoxicity) assay. Transepithelial electrical resistance (TER) was measured before and after the 1-h incubation. Following the incubation, the cell inserts were analyzed for cell viability via the mitochondrial dehydrogenase (MDH) assay.
Cell viability was assessed using the MTT assay (MTT-100, MatTek kit). Thawed and diluted MTT concentrate was pipetted (300 μl) into a 24-well plate. Tissue inserts were gently dried, placed into the plate wells, and incubated at 37° C. for 3 hours. After incubation, each insert was removed from the plate, blotted gently, and placed into a 24-well extraction plate. The cell culture inserts were immersed in 2.0 ml of the extractant solution per well (to completely cover the sample). The extraction plate was covered and sealed to reduce evaporation of extractant. […] The optical density of the samples was measured at 550 nm on a plate reader.
(In general: Formazan colour is commonly taken as a measure of viable cells.)

For data set [5] the test system is unchanged. Briefly: Cytotoxicity, LDH assay (Example 3). The note with it: 60-min samples. It counts as cell-based. As to the method: as §6
The amount of cell death was assayed by measuring the loss of lactate dehydrogenase (LDH) from the cells using a CytoTox 96 Cytoxicity Assay Kit (Promega Corp., Madison, Wis.). LDH analysis of the apical media was evaluated. The appropriate amount of media was added to the apical surface in order to total 250 μL, taking into consideration the initial sample loading volume. The inserts was shaken for 5 minutes. 150 μL of the apical media was removed to eppendorf tubes and centrifuged at 10000 rpm for 3 minutes. […] Following incubation, 50 μl of stop solution was added to each well and the plates read on an optical density plate reader at 490 nm.

Data set [6] shares this test system. Briefly: Transepithelial electrical resistance (TER), MatTek cell model (Examples 1-2). It counts as cell-based. The conditions noted are these: 1-h incubation, apical application. As to the method: The effect of various permeation enhancers on PTH formulations was measured in a MatTek cell model (MatTek, Corp. Ashland, Mass.). Three permeation enhancers (EDTA, ethanol, and polysorbate 80 (Tween 80)) were evaluated individually and in combination with one another. Sorbitol was used as a tonicifiers to adjust the osmolality of formulations to 220 mOsm/kg whenever applicable. The formulation pH was adjusted to ˜4.0. The permeation enhancer combination of 45 mg/ml Me-β-CD, 1 mg/ml DDPC, and 1 mg/ml EDTA at pH 4.5 served as the positive control. The formulation containing sorbitol only was used as the negative control. Each formulation was evaluated in the presence and absence of preservative. […]
Each tissue insert was placed in an individual well containing 1 ml media. […] Transepithelial electrical resistance (TER) was measured before and after the 1-h incubation. Following the incubation, the cell inserts were analyzed for cell viability via the mitochondrial dehydrogenase (MDH) assay.
TER measurements were accomplished using the Endohm-12 Tissue Resistance Measurement Chamber connected to the EVOM Epithelial Voltammeter (World Precision Instruments, Sarasota, Fla.) with the electrode leads. […] The background resistance was measured with 1.5 ml Media in the Endohm tissue chamber and 300 μl Media in the blank insert. […] Resistance was expressed as (resistance measured−blank)×0.6 cm^2. […]

With “human growth hormone: protein whose nasal bioavailability in rats was reported raised by N-acetyl-L-cysteine”, the “nasal bioavailability of human growth hormone” value was 12.2% in data set [1] (with N-acetyl-L-cysteine) and 7.5% in [1] (without N-acetyl-L-cysteine).

`CC[C@H](C)[C@H](NC(=O)[C@H](CCC(=O)O)NC(=O)[C@H](CO)NC(=O)[C@@H](NC(=O)[C@@H](N)CO)C(C)C)C(=O)N[C@@H](CCC(N)=O)C(=O)N[C@@H](CC(C)C)C(=O)N[C@@H](CCSC)C(=O)N[C@@H](Cc1cnc[nH]1)C(=O)N[C@@H](CC(N)=O)C(=O)N[C@@H](CC(C)C)C(=O)NCC(=O)N[C@@H](CCCCN)C(=O)N[C@@H](Cc1cnc[nH]1)C(=O)N[C@@H](CC(C)C)C(=O)N[C@@H](CC(N)=O)C(=O)N[C@@H](CO)C(=O)N[C@@H](CCSC)C(=O)N[C@@H](CCC(=O)O)C(=O)N[C@@H](CCCN=C(N)N)C(=O)N[C@H](C(=O)N[C@@H](CCC(=O)O)C(=O)N[C@@H](Cc1c[nH]c2ccccc12)C(=O)N[C@@H](CC(C)C)C(=O)N[C@@H](CCCN=C(N)N)C(=O)N[C@@H](CCCCN)C(=O)N[C@@H](CCCCN)C(=O)N[C@@H](CC(C)C)C(=O)N[C@@H](CCC(N)=O)C(=O)N[C@@H](CC(=O)O)C(=O)N[C@H](C(=O)N[C@@H](Cc1cnc[nH]1)C(=O)N[C@@H](CC(N)=O)C(=O)N[C@@H](Cc1ccccc1)C(=O)O)C(C)C)C(C)C` [PTH1-34, teriparatide]: the “effect of addition of CB on permeation of the API” value in the data set on MatTek in vitro system is given as “enhanced permeation”. Besides, the “trabecular bone in femur and sternum” value with Crl:CD(SD) rats (female rats, 25 μg/kg/day SQ, 200 μg/kg/day PTH-072-1, 500 μg/kg/day PTH-074-1 intranasally) is “thickened trabecular bone”; with beagles (dogs dosed subcutaneously or intranasally at the high dose), “minimally thickened trabecular bone”. Moreover, the “changes in nasal turbinate tissues” value in the data set on Crl:CD(SD) rats (rats, 13 weeks intranasal) is reported as “No changes considered to be attributable to the intranasal administration of PTH1-34 were observed”. Also, the “clinical signs, ophthalmic observations, body weight, food consumption” value with Crl:CD(SD) rats (rats, 13 weeks, regardless of route, dose level or formulation) was “No PTH1-34 related clinical signs, ophthalmic observations, body weight changes, or food consumption changes were observed”. The maximum concentration (Cmax) in [2] lay in the range of 7.72 to 12.2 ng/mL. The time of peak concentration (Tmax) was 5 min in data set [2] and 13 to 26 min in data set [3]. The half-life in data set [2] (read-out: t1/2 for PTH1-34) was 15 to 23 min. Also, the “histologic changes in nasal tissues” value in the data set on beagles (dog, in vivo) is on record as “no histologic changes in nasal tissues”. In the data set on beagles (dogs vs humans), the “AUClast greater in the dog than in humans at representative doses” value is recorded as no less than 10 fold. Also, in the data set with beagles (dogs vs humans), the “Cmax greater in the dog than in humans at representative doses” value is given as “at least 7 fold”. In the data set with beagles (dogs, 13 weeks), the “clinical signs, ophthalmic findings, ECG, blood pressure, heart rate, body weights, food consumption” value is “No PTH1-34 related clinical signs, ophthalmic findings, electrocardiogram differences, blood pressure and heart rate differences, body weights, or food consumption changes were noted”.

As for “Calcitonin (CGNLSTCMLGTYTQDFNKFHTFPQTAIGVGAP; ends and bridges not checked; cysteine pairing not given here; UniProt P01258 85-116, looked up) [peptide API tested for CB permeation enhancement]”, the “effect of addition of CB on permeation of the API” value with MatTek in vitro system is given as “failed to enhance permeation”.

In the case of Triton X, the “cell viability (MTT)” value in data set [4] was “significant reduction of cell viability”. For the same compound, the “cytotoxicity (LDH)” value in [5] was “significant cytotoxicity”. For the same compound, the TER reduction result in [6] was “significant TER reduction”.
